Laboratory results reported in patent US20090318379A1, “Statins for the Treatment of Viral Influenza Infections” (priority 2006, published 2009).
Where two headings read alike, the source gives them in different places.

Experiments:
Influenza A H5N1 [1] = format: cell-based, Influenza A H5N1 (isolated in 1997 from human)
MDCK cells [2] = system: MDCK cells
MDCK cells [3] = system: MDCK cells; remark: listed apart in the source
Influenza A H5N1 [4] = format: cell-based, Influenza A H5N1 (isolated in 1997 from human); remark: listed apart in the source
MDCK cells [5] = system: MDCK cells; remark: listed apart in the source
Influenza A H5N1 [6] = format: cell-based, Influenza A H5N1 (isolated in 1997 from human); remark: listed apart in the source

For `NC(=O)c1ncn([C@@H]2O[C@H](CO)[C@@H](O)[C@H]2O)n1` [RIBAVIRIN, Ribavirin, reference compound], the No. of plaque (Influenza A H5N1 [1]) was 0, the “Cytotoxicity in virus yield reduction assay” value (MDCK cells [2]) was “No” and the Cytotoxicity (MDCK cells [3]) was “No”. For the same compound, the Number of plaques (Influenza A H5N1 [4]) was 11000, the Cytotoxicity (MDCK cells [5]) was “No” and the “No. of plaque 1st well” value (Influenza A H5N1 [6]) was 134. For the same compound, the “No. of plaque 2nd well” value (Influenza A H5N1 [6]) was 131 and the “No. of plaque 3rd well” value (Influenza A H5N1 [6]) was 132.
